pEC50: −log10 of the molar value.
Target: T1, mitochondrial ATP synthase subunit alpha (α-F1-ATP synthase, ATP5A) (Homo sapiens, UniProt P25705)
T1 construct: gene ATP5F1A; purified recombinant human α-F1-ATP synthase (CusaBio)
Test: DSF Tm increase with purified recombinant α subunit ([…]~[…] CADD522, no Kd); the EC50 is from CETSA in MDA-MB-231 lysate; immunocaptured ATP synthase also inhibited at […]~[…]
Type: binding

T1 sequence (P25705 44-553): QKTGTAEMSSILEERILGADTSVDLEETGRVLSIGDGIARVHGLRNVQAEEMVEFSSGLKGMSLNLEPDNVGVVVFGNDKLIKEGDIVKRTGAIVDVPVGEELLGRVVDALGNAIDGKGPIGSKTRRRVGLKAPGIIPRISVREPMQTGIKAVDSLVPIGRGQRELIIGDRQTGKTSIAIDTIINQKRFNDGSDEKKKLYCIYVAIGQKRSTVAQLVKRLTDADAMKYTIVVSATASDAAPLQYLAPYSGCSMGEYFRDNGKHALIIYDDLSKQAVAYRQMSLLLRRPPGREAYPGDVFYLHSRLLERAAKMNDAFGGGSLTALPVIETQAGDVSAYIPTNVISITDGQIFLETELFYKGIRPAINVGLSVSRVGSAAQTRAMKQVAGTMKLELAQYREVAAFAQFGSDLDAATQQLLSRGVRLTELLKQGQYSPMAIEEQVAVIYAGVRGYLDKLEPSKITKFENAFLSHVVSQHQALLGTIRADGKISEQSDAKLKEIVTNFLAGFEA

pEC50: > 6.85
SMILES: O=C(O)C1C2C=CC(C2)C1C(=O)Nc1ccc(Cl)c(Cl)c1 (stereo not shown) [CADD522]
